Article PMC7736868, “Fluorescent ligands for dopamine D2/D3 receptors” (Scientific Reports, 2020)
Read-outs that look alike come from different tables or passages of the source.

Key:
[1] = biological target: human D3R (Homo sapiens, UniProt P35462); test: Radioligand competition, [3H]spiperone, CHO cell membranes
[2] = biological target: T1, porcine D1R (Sus scrofa, UniProt P50130); test: Radioligand competition, [3H]SCH23390, porcine striatum homogenates; assay type: binding; settings: [3H]SCH23,390; mean of n experiments; read-out: Ki pD1R
T1 construct: homogenates obtained from porcine striatum; from tissue; host or cells: porcine striatum homogenate

[3] = biological target: human D2LR (Homo sapiens, UniProt P14416); test: Radioligand competition, [3H]spiperone, CHO cell membranes
[4] = biological target: T2, human D4R (Homo sapiens, UniProt P21917); test: as above
T2 sequence (P21917 1-419): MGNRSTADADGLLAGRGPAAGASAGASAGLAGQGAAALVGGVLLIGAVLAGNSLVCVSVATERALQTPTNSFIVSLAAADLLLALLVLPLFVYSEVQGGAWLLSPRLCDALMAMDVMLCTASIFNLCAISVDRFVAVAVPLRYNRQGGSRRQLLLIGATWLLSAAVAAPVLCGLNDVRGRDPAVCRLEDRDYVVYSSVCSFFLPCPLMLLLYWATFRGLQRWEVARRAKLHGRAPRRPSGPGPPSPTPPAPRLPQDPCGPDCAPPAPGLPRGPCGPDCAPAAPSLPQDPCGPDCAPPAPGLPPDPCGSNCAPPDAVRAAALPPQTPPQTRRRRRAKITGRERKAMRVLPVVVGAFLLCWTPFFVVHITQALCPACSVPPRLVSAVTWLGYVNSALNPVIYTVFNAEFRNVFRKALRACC

[5] = biological target: T3, porcine 5-HT1AR (Sus scrofa, UniProt A0A4X1UTF5); test: Radioligand competition, [3H]WAY100,635, porcine cerebral cortex homogenates; assay type: binding; settings: mean of n experiments, read-out: Ki p5-HT1AR
T3 construct: homogenates of porcine cerebral cortex; from tissue; host or cells: porcine cerebral cortex homogenate
T3 sequence (A0A4X1UTF5 1-422): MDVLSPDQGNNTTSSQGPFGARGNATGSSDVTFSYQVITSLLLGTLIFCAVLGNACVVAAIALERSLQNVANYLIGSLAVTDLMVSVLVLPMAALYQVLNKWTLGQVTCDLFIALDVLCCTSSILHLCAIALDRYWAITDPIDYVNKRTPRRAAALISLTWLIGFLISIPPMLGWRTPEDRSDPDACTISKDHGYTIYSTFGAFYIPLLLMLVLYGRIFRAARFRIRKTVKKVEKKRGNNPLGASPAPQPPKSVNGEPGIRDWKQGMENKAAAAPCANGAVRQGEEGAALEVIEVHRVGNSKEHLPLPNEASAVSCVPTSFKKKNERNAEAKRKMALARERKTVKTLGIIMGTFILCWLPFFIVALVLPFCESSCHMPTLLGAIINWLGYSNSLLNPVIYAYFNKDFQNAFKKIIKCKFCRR

[6] = biological target: T4, D2SR (Homo sapiens, UniProt P14416); test: Radioligand competition, [3H]spiperone, CHO cell membranes
[7] = biological target: T5, porcine 5-HT2R (Sus scrofa, UniProt P50129); test: Radioligand competition, [3H]ketanserin, porcine cerebral cortex homogenates; assay type: binding; settings: mean of n experiments, read-out: Ki p5-HT2R
T5 construct: homogenates of porcine cerebral cortex; from tissue; host or cells: porcine cerebral cortex homogenate

[8] = biological target: porcine α1-AR; test: Radioligand competition, [3H]prazosin, porcine cerebral cortex homogenates; settings: read-out: Ki pα1-AR, mean of n experiments
[9] = biological target: T4, D2SR; test: β-arrestin-2 recruitment (Pathhunter, DiscoverX), HEK293 cells, GRK2 coexpressed; assay type: cell-based; design: expressed in transfected cells; settings: for Emax: read-out: Emax β-arrestin-2 recruitment at D2SR, reference agonist quinpirole
[10] = biological target: human isoform of D1R (Homo sapiens, UniProt P21728); test: Radioligand competition at human isoform of D1R; assay type: binding; settings: assay performed with human isoform of D1R; [3H]SCH23,390 column
Procedure: Supplementary Table S1. Binding affinities of the test compounds. Binding affinities of the test compounds for porcine D1R, 5-HT 1AR, 5-HT 2R and α1-AR were determined by radioligand […]
a Data are indicated as m ean (and range) of (n) individual experim ents, each per form ed in triplicate; b assay perform ed with hum an isoform of D1R; c n. d. K i not determ ined as no com plete ligand displacem ent occurred;

[11] = biological target: secNluc-D3R (UniProt P35462+Q9GV45, A31E/A60N/A81I/F95D/I117V/K70R/L54V/L99Q/M102K/N193R/P142E/Q151K/Q38R/Q45L/V71I/Y165I); test: NanoBRET association and dissociation kinetics, membranes; assay type: binding
Procedure: (a) Association of 10a at room temperature was measured by NanoBRET using secNluc-D3R membrane preparations and threefold serial dilutions of 10a (3.3–30 nM). […] Obtained IC50 values were transformed into Ki values applying the equation of Cheng and Prusoff[52]. […] Kinetic assays were monitored at room temperature and minimal possible cycle time of the CLARIOstar was used for each measurement. Data was fitted to one phase association and dissociation equations in PRISM6.0 to determine the kinetic constants. […] Addition of furimazine (1:5,000) and BRET measurements were carried out as described above. Data analysis was performed using the one site—fit Ki equation in PRISM6.0 to determine the inhibition constants (Ki) of the unlabeled ligands.

[12] = read-out: Ki hD3R, [3H]spiperone, mean ± SEM
[13] = read-out: EC50 β-arrestin-2 recruitment at D2SR, mean ± SEM
[14] = read-out: Ki hD2LR, [3H]spiperone, mean ± SEM
[15] = read-out: Ki hD4R, [3H]spiperone, mean ± SEM
[16] = read-out: Ki hD2SR, [3H]spiperone, mean ± SEM

T4 sequence (P14416 1-414 isoform P14416-2): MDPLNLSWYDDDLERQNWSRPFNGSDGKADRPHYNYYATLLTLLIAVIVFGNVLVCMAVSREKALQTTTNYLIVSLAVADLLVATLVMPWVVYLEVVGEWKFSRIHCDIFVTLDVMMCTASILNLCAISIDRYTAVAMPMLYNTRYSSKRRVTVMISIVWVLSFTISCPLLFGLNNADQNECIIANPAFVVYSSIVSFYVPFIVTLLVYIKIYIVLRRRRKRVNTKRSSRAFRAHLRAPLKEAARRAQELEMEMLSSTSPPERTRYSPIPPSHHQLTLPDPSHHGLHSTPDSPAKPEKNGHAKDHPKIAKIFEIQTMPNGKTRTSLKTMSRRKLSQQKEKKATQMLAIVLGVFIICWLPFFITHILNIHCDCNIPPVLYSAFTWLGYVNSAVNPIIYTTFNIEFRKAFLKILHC
T5 sequence (P50129 whole entry): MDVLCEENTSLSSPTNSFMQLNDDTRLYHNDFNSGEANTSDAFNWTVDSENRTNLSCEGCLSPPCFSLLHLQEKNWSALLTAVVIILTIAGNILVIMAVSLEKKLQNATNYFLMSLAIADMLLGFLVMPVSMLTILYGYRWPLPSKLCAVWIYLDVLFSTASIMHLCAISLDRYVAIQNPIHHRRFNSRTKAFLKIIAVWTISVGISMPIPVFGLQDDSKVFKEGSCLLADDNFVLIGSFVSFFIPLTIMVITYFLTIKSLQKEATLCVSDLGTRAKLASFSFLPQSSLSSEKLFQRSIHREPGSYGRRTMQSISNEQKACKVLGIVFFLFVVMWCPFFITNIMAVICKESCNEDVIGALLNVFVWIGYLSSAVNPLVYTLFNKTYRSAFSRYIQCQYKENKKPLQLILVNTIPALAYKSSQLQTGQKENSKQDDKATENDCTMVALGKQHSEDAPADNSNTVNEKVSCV
Sequence of secNluc-D3R (Q9GV45+P35462 fused with the stated changes): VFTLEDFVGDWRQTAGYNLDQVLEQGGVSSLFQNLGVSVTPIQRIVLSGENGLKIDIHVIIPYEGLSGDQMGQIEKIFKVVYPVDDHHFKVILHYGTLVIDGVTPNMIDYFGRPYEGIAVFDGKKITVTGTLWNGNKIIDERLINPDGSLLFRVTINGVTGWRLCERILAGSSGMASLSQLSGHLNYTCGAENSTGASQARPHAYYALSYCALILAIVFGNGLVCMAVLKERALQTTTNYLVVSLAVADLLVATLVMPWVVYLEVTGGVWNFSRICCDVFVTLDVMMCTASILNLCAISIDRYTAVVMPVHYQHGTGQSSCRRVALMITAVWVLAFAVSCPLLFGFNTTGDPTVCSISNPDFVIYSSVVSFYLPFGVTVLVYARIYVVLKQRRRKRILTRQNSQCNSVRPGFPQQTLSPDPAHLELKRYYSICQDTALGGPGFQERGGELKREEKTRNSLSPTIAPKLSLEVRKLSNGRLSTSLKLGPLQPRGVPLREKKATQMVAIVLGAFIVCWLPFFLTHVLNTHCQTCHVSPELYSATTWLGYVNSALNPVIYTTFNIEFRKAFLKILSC
Sequence of human D3R (P35462 whole entry): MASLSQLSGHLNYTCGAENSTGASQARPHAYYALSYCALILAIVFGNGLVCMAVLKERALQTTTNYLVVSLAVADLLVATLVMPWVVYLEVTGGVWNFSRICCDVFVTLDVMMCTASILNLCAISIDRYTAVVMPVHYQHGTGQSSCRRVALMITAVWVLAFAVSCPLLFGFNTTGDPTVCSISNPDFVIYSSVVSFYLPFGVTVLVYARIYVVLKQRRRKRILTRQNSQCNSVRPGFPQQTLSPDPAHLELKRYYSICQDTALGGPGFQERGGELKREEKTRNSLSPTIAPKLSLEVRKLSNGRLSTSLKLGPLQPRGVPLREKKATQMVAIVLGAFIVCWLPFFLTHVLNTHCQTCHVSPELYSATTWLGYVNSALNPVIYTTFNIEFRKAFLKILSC
Sequence of human D2LR (P14416 whole entry): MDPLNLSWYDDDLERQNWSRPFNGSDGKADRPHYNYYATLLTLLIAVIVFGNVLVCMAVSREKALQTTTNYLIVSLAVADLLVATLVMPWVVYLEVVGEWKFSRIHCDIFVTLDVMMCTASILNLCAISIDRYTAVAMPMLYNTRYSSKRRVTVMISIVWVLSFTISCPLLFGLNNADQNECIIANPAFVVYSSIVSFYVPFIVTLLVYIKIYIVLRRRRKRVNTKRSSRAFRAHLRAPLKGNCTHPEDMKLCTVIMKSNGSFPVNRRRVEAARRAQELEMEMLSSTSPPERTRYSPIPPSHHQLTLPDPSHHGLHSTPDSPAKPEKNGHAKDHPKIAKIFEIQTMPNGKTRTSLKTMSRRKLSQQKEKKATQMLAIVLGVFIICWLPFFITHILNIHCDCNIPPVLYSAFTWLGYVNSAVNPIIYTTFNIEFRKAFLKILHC
T1 sequence (P50130 whole entry): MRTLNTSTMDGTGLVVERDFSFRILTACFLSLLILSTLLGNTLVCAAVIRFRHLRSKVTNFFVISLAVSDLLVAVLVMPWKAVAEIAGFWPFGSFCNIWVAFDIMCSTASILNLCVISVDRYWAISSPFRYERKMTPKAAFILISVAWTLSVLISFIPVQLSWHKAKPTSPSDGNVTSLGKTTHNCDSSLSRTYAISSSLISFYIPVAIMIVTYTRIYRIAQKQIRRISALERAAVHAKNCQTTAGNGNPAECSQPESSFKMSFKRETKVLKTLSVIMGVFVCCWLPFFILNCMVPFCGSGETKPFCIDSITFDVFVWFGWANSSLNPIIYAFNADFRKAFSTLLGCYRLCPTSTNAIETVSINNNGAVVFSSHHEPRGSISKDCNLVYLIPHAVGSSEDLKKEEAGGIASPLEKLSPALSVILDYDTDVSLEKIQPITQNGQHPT
Sequence of human isoform of D1R (P21728 whole entry, canonical isoform): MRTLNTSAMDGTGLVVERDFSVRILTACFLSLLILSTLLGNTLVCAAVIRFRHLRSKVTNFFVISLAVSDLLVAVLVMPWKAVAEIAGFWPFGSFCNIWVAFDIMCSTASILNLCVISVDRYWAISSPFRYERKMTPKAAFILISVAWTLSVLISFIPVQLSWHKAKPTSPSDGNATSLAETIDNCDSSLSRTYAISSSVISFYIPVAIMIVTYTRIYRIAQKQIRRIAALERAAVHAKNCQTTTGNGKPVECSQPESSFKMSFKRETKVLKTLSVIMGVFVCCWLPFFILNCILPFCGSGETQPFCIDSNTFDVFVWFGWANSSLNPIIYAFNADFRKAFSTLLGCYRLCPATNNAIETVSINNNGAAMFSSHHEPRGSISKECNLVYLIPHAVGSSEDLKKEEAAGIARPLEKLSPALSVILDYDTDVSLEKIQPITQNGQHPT

Structure (SMILES)	Ki [1] [nM]	Ki [2] [nM]	Ki [3] [nM]	Ki [4] [nM]	Ki [5] [nM]	Ki [6] [nM]	Ki [7] [nM]	Ki [8] [nM]	also measured
CCCN(CCCCc1cn(-c2ccc(C#N)cc2)nn1)C1Cc2ccccc2C1 [2a]	0.41 ± 0.09	3000	8.7 ± 2.5	33 ± 7	52	6.5 ± 1.7	850	87	–
N#Cc1ccc(-n2cc(CCCCN3CCN(c4cccc(Cl)c4Cl)CC3)nn2)cc1 [2b]	1 ± 0.2	540	15 ± 5	120 ± 61	260	6.3 ± 0.2	1100	4.9	–
COc1ccccc1N1CCN(CCCCc2cn(-c3ccc(C#N)cc3)nn2)CC1 [2c]	13 ± 4	1100	77 ± 17	140 ± 10	25	34 ± 8	600	2.4	–
CC(C)(C)c1nc(N2CCN(CCCCc3cn(-c4ccc(C#N)cc4)nn3)CC2)cc(C(F)(F)F)n1 [2d]	9.5 ± 1.9	5500	360 ± 60	5000	4100	350 ± 30	4400	1100	–
CCCN(CCCCc1cn(-c2ccc(CNS(=O)(=O)c3cccc4c(N(C)C)cccc34)cc2)nn1)C1Cc2ccccc2C1 [4a]	0.29 ± 0.02	590	5.2 ± 0.6	27 ± 3	27	1.7 ± 0.3	220	29	–
CN(C)c1cccc2c(S(=O)(=O)NCc3ccc(-n4cc(CCCCN5CCN(c6cccc(Cl)c6Cl)CC5)nn4)cc3)cccc12 [4b]	1.9 ± 0.7	190	20 ± 8	59 ± 20	78	5.1 ± 1.7	390	7.9	–
COc1ccccc1N1CCN(CCCCc2cn(-c3ccc(CNS(=O)(=O)c4cccc5c(N(C)C)cccc45)cc3)nn2)CC1 [4c]	6.5 ± 2.3	180	17 ± 7	32 ± 6	55	8.4 ± 3.4	450	1.1	–
CN(C)c1cccc2c(S(=O)(=O)NCc3ccc(-n4cc(CCCCN5CCN(c6cc(C(F)(F)F)nc(C(C)(C)C)n6)CC5)nn4)cc3)cccc12 [4d]	11 ± 2	> 10000	7600	> 10000	> 10000	6000	> 10000	3000	decrease of D2LR affinity by introduction of the dansyl moiety (factor) ([3]; 4d versus 2d): ~ 20; decrease of D2SR affinity by introduction of the dansyl moiety (factor) ([6]; 4d versus 2d): ~ 20
CCCN(CCCCc1cn(-c2ccc(C(=O)NCCCN)cc2)nn1)C1Cc2ccccc2C1 [7a]	0.26 ± 0.03	3600	3.5 ± 0.4	8.5 ± 0.8	13	1.8 ± 0.2	400	37	–
CCCN(CCCCc1cn(-c2ccc(C(=O)NCCCNS(=O)(=O)c3cccc4c(N(C)C)cccc34)cc2)nn1)C1Cc2ccccc2C1 [8a]	0.32 ± 0.05	1100	1.2 ± 0.2	10 ± 4	70	0.44 ± 0.12	690	22	EC50 ([9]; mean ± SEM): 51 ± 11 nM; Emax [9]: 98 ± 2%
CN(C)c1cccc2c(S(=O)(=O)NCCCNC(=O)c3ccc(-n4cc(CCCCN5CCN(c6cccc(Cl)c6Cl)CC5)nn4)cc3)cccc12 [8b]	1.9 ± 0.9	340	13 ± 6	130 ± 10	170	3.6 ± 1.6	380	23	–
CCCN(CCCCc1cn(-c2ccc(CNC(=O)c3ccc(-c4c5ccc(=NCC(F)(F)F)cc-5oc5cc(NCC(F)(F)F)ccc45)c(C(=O)O)c3)cc2)nn1)C1Cc2ccccc2C1 [10a]	0.97 ± 0.23	–	46 ± 7	56 ± 4	–	21 ± 4	–	100	Ki [10]: 310 nM; EC50 ([9]; mean ± SEM): 410 ± 70 nM; Emax [9]: 89 ± 3%; koff [11]: 0.0009 s⁻¹; residence time [11]: 19 ± 1 min; kon ([11]; read-out: Kon association rate constant): 170000 M⁻¹ s⁻¹
CCCN(CCCCc1cn(-c2ccc(C(=O)NCCCNC(=O)Cc3ccc4c(c3)C(C)(C)C3=C5C=C6C7=[N+](CCC6OC5CCN34)c3ccc(S(=O)(=O)[O-])cc3C7(C)C)cc2)nn1)C1Cc2ccccc2C1 (stereo not drawn) [10b]	–	5100	–	–	120	–	330	87	Ki [1, 12]: 0.9 ± 0.26 nM; EC50 [9, 13]: 410 ± 60 nM; Emax [9]: 79 ± 3%; Ki [3, 14]: 10 ± 2 nM; Ki [4, 15]: 50 ± 7 nM; Ki [6, 16]: 4.8 ± 1 nM
CCCN(CCCCc1cn(-c2ccc(C(=O)NCCCNC(=O)c3ccc(-c4c5ccc(=N)c(S(=O)(=O)O)c-5oc5c(S(=O)(=O)O)c(N)ccc45)c(C(=O)O)c3)cc2)nn1)C1Cc2ccccc2C1 [10c]	–	5100	–	–	85	–	2200	150	Ki [1, 12]: 0.76 ± 0.11 nM; EC50 [9, 13]: 100 ± 20 nM; Emax [9]: 93 ± 3%; Ki [3, 14]: 23 ± 5 nM; Ki [4, 15]: 47 ± 9 nM; Ki [6, 16]: 15 ± 4 nM
